In assay [1] the test system is human non-small cell lung cancer cell line NCI-H460. Description: Cell proliferation inhibition test by sensitivity-enhancing to ionizing radiation (Cell Titer Glo). The format is cell-based. As to conditions: Homo sapiens, concentration in which SER became 2, NCI-H460 cells, ionizing radiation 2 Gy, cultured 120 hour. The gist of the method:
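Radiosensitisation measured as SER, a ratio of Cell Titer Glo luminescence in irradiated vs unirradiated plates relative to DMSO; SER2, the concentration yielding SER 2, came from sigmoidal regression. Compound (0.1% DMSO) was given 24 h post-seeding, 2 Gy applied 30 min later, then 120 hour culture at 37° C.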
For orientation: Cellular ATP, detected with luciferase, serves as a proxy for viable cell number.

The next assay addresses T1, ATM (Homo sapiens, UniProt Q13315).
T1 construct: detecting phosphorylation of Chk2 in a human non-small cell lung cancer cell line NCI-H460 (ATCC company); host or cells: NCI-H460 human non-small cell lung cancer cells
Description: ATM inhibition test (phosphorylation of Chk2 generated by ionizing radiation, AlphaScreen SureFire). The format is cell-based. As to conditions: phosphorylated Chk2 in NCI-H460 cells, ionizing radiation 8Gy, 1 hour after test compound treatment; read-out: ATM inhibitory activity. The gist of the method: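 Human NCI-H460 lung cancer cells were treated with compound for 1 h, then irradiated at 8Gy and incubated 1 h at 37° C. Phospho-Chk2 was quantified by AlphaScreen SureFire; inhibition % was normalised between irradiated untreated and non-irradiated untreated wells.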

T1 sequence (Q13315 whole entry): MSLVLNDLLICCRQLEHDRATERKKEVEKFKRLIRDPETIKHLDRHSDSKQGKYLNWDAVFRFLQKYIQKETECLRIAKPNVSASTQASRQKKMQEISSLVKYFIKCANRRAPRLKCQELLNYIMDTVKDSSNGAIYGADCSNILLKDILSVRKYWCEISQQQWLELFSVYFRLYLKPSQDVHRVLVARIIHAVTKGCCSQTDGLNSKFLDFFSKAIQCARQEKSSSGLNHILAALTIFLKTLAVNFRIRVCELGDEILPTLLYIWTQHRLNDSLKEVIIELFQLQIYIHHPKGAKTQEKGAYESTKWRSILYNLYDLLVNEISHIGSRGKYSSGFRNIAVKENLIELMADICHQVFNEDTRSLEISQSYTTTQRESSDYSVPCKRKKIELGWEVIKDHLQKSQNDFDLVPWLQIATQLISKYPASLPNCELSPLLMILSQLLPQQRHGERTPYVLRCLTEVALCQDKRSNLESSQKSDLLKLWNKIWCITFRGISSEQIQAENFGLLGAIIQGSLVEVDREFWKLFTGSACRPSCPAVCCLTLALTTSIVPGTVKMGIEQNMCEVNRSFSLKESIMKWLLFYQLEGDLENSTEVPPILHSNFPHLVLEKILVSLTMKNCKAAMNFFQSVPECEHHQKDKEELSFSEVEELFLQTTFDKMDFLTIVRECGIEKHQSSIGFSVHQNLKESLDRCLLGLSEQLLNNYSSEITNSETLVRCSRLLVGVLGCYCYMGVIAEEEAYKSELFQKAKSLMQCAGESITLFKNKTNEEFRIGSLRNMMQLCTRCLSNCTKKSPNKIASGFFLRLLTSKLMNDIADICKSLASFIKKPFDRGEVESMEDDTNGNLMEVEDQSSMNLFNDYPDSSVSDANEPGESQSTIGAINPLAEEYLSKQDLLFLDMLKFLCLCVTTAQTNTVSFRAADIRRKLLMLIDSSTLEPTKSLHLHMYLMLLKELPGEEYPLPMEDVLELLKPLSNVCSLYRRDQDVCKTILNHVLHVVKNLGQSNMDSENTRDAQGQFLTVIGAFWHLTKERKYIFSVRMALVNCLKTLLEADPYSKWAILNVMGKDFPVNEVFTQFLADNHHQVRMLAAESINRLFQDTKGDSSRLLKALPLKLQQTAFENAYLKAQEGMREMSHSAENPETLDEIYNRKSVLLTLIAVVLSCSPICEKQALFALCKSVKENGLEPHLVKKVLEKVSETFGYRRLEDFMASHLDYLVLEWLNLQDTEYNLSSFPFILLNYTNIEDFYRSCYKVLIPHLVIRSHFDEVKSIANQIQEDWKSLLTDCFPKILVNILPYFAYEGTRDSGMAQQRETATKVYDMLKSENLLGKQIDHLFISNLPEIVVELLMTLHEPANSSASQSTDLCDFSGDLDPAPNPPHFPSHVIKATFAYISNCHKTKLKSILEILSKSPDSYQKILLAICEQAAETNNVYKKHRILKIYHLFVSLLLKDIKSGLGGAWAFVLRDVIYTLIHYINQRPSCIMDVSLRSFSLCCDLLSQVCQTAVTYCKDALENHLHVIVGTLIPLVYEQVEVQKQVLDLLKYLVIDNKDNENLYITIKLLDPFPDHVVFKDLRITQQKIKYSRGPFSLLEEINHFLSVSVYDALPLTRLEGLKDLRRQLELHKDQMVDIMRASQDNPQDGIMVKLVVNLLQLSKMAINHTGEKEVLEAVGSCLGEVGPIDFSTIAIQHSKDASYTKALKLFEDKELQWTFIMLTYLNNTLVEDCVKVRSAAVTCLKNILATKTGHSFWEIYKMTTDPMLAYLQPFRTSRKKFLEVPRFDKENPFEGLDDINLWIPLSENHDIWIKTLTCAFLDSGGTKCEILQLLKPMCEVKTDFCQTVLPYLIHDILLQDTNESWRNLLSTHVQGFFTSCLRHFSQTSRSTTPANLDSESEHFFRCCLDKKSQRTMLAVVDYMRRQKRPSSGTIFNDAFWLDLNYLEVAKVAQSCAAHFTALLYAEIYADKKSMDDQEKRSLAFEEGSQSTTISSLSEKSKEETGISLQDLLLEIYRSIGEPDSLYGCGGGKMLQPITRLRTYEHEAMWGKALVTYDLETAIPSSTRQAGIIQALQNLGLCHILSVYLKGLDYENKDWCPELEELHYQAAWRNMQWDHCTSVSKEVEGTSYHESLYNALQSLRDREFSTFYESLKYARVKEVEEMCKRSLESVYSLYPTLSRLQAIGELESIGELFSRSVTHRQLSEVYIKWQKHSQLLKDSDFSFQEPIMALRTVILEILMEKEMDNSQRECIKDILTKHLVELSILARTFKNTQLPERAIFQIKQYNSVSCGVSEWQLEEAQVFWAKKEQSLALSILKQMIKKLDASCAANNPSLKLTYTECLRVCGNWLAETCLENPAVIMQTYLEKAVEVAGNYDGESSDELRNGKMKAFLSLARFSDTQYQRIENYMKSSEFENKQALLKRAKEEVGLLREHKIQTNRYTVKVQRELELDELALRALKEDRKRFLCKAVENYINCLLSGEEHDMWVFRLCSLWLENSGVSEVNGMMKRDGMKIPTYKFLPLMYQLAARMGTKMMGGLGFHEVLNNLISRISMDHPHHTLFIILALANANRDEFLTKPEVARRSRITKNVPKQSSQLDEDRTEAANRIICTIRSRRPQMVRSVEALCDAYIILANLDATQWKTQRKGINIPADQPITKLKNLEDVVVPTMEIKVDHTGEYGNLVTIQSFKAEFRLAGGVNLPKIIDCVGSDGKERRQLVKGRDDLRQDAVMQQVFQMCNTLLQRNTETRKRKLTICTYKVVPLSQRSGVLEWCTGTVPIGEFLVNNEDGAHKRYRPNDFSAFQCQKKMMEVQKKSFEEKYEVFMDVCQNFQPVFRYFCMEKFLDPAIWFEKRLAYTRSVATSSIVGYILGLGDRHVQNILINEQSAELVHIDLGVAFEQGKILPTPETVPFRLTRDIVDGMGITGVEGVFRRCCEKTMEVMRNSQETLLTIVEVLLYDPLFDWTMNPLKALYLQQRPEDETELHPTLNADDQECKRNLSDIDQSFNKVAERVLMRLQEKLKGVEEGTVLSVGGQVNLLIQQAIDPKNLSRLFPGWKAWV

Regarding `O=c1cc(N2CCOCC2)cc(-c2cccc3c2Oc2ccc(NCc4cncc(-n5cccc5)c4)cc2C3)[nH]1` [Example 2-2-58, 6-(7-(((5-(1H-Pyrrol-1-yl)pyridin-3-yl)methyl)amino)-9H-xanthen-4-yl)-4-morpholino pyridin-2(1H)-one], in assay [1] (NCI-H460, 120 h), the SER2 (concentration at which the radiation sensitivity-enhancement ratio reaches 2) was in the range of 500 to 2000 nM. The IC50 at ATM is below 100 nM.
For `Cc1cccc(C(CCN2CCOCC2)Nc2ccc3c(c2)Sc2cccc(-c4cc(N5CCOCC5)cc(=O)[nH]4)c2S3)n1` (centres unmarked) [Example 1-34-4] the same measures were below 100 nM and below 100 nM.
On to `O=c1cc(N2CCOCC2)cc(-c2cccc3c2Sc2ccc(N[C@@H]4CCCC[C@@H]4N4CCOCC4)cc2S3)[nH]1` [Example 1-48-2, 4-Morpholino-6-(7-(((1R,2S)-2-morpholinocyclohexyl)amino)thianthren-1-yl)pyridin-2(1H)-one], for which the SER2 (concentration at which the radiation sensitivity-enhancement ratio reaches 2) in assay [1] (NCI-H460, 120 h) was below 100 nM. At ATM, the IC50 is below 100 nM.
Take `Cc1ccc(C2(Nc3ccc4c(c3)Sc3cccc(-c5cc(N6CCOCC6)cc(=O)[nH]5)c3S4)CC2)nc1` [Example 1-50-5, 6-(7-((1-(5-Methylpyridin-2-yl)cyclopropyl)amino)thianthren-1-yl)-4-morpholino pyridin-2(1H)-one]: the SER2 (concentration at which the radiation sensitivity-enhancement ratio reaches 2) in assay [1] (NCI-H460, 120 h) lay in the range of 100 to 500 nM. The IC50 at ATM was below 100 nM.
For `CCC(Nc1ccc2c(c1)Sc1cccc(-c3cc(N4CCOCC4)cc(=O)[nH]3)c1S2)c1ccc(C)cn1` (centres unmarked) [Example 1-12-118, 6-(7-((1-(5-Methylpyridin-2-yl)propyl)amino)thianthren-1-yl)-4-morpholino pyridin-2(1H)-one] the same measures were 100 to 500 nM and below 100 nM.
The like results for `COc1ccnc(CNc2ccc3c(c2)Sc2cccc(-c4cc(N5CCOCC5)cc(=O)[nH]4)c2O3)c1` [Example 4-8-8, 6-(8-(((4-Methoxypyridin-2-yl)methyl)amino)phenoxathiin-4-yl)-4-morpholino pyridin-2 (1H)-one] were, in that order, 100 to 500 nM and below 100 nM.
The like results for `O=c1cc(N2CCOCC2)cc(-c2nccc3c2Oc2ccc(NCc4cc(Cl)ccn4)cc2C3)[nH]1` [Example 2-41-3, 6-(7-(((4-Chloropyridin-2-yl)methyl)amino)-5H-chromeno [2,3-c]pyridin-1-yl)-4-morpholino pyridin-2(1H)-one] were, in that order, 100 to 500 nM and below 100 nM.
For the compound `CC(Nc1ccc2c(c1)Cc1cccc(-c3cc(N4CCOCC4)cc(=O)[nH]3)c1O2)c1cccc(F)n1` (single isomer, unassigned) [Example 2-14-87-1, 6-(7-((1-(6-fluoropyridin-2-yl)ethyl)amino)-9H-xanthen-4-yl)-4-morpholinopyridin-2(1H)-one], the SER2 (concentration at which the radiation sensitivity-enhancement ratio reaches 2) in assay [1] (NCI-H460, 120 h) lay in the range of 100 to 500 nM. In addition, on ATM, the IC50 was below 100 nM.
`Cc1ccc(CNc2ccc3c(c2)Sc2cccc(-c4cc(N5CCOCC5)cc(=O)[nH]4)c2O3)cn1` [Example 4-8-23, 6-(8-(((6-Methylpyridin-3-yl)methyl)amino)phenoxathiin-4-yl)-4-morpholino pyridin-2(1H)-one]: the SER2 (concentration at which the radiation sensitivity-enhancement ratio reaches 2) in assay [1] (NCI-H460, 120 h) lay in the range of 100 to 500 nM. In addition, on ATM, the IC50 was below 100 nM.
For `Cc1ccnc(C(CO)Nc2ccc3c(c2)Sc2cccc(-c4cc(N5CCOCC5)cc(=O)[nH]4)c2S3)c1` (centres unmarked) [Example 1-12-65, 6-(7-((2-Hydroxy-1-(4-methylpyridin-2-yl)ethyl)amino)thianthren-1-yl)-4-morpholino pyridin-2(1H)-one] the same measures were 100 to 500 nM and below 100 nM.
Take `O=c1cc(N2CCOCC2)cc(-c2cccc3c2Sc2ccc(NC(CF)CN4CCOCC4)cc2S3)[nH]1` (racemic) [Example 1-41-1-1, 6-(7-((1-Fluoro-3-morpholinopropan-2-yl)amino)thianthren-1-yl)-4-morpholinopyridin-2(1H)-one]: the SER2 (concentration at which the radiation sensitivity-enhancement ratio reaches 2) in assay [1] was below 100 nM. Besides, the IC50 at ATM was below 100 nM.
As to `CC(Nc1ccc2c(c1)Cc1cccc(-c3cc(N4CCOCC4)cc(=O)[nH]3)c1O2)c1cccc(F)n1` (centres unmarked) [Example 2-14-21, 6-(7-((1-(6-Fluoropyridin-2-yl)ethyl)amino)-9H-xanthen-4-yl)-4-morpholino pyridin-2(1H)-one], the SER2 (concentration at which the radiation sensitivity-enhancement ratio reaches 2) in assay [1] (NCI-H460, 120 h) was in the range of 100 to 500 nM. The IC50 on ATM was below 100 nM.
For `Cc1ccc(C(Nc2ccc3c(c2)Sc2cccc(-c4cc(N5CCOCC5)cc(=O)[nH]4)c2S3)[C@H]2CN(C(=O)CN(C)C)CCO2)nc1` (single isomer, unassigned) [Example 10-1] the same measures were below 100 nM and 100 to 500 nM.
Take `Cc1ccc(C(Nc2ccc3c(c2)Sc2cccc(-c4cc(N5CCOCC5)cc(=O)[nH]4)c2S3)C2CC2)nc1` (centres unmarked) [Example 1-12-123, 6-(7-((Cyclopropyl(5-methylpyridin-2-yl)methyl)amino)thianthren-1-yl)-4-morpholino pyridin-2(1H)-one]: in assay [1] (NCI-H460, 120 h), the SER2 (concentration at which the radiation sensitivity-enhancement ratio reaches 2) was 100 to 500 nM. Further, the IC50 at ATM was below 100 nM.
For `COCc1cc(CNc2ccc3c(c2)Cc2cccc(-c4cc(N5CCOCC5)cc(=O)[nH]4)c2O3)ccn1` [Example 2-21-6, 6-(7-(((2-(Methoxymethyl)pyridin-4-yl)methyl)amino)-9H-xanthen-4-yl)-4-morpholino pyridin-2(1H)-one] the same measures were 500 to 2000 nM and below 100 nM.
In the case of `O=c1cc(N2CCOCC2)cc(-c2c(F)ccc3c2Oc2ccc(NCc4cc(C5CC5)ccn4)cc2C3)[nH]1` [Example 2-46-3, 6-(7-(((4-Cyclopropylpyridin-2-yl)methyl)amino)-3-fluoro-9H-xanthen-4-yl)-4-morpholinopyridin-2(1H)-one], in assay [1] (NCI-H460, 120 h), the SER2 (concentration at which the radiation sensitivity-enhancement ratio reaches 2) was below 100 nM. On ATM, the IC50 was below 100 nM.
Turning to `Cc1cnc(C(C)Nc2ccc3c(c2)Sc2cccc(-c4cc(N5CCOCC5)cc(=O)[nH]4)c2S3)cn1` (centres unmarked) [Example 1-12-64, 6-(7-((1-(5-Methylpyrazin-2-yl)ethyl)amino)thianthren-1-yl)-4-morpholino pyridin-2(1H)-one], the SER2 (concentration at which the radiation sensitivity-enhancement ratio reaches 2) in assay [1] (NCI-H460, 120 h) is below 100 nM. Further, at ATM, the IC50 was below 100 nM.
Take `Cc1ccc(CNc2ccc3c(c2)Sc2cccc(-c4cc(N5CCOCC5)cc(=O)[nH]4)c2S3)cn1` [Example 1-12-15, 6-(7-(((6-Methylpyridin-3-yl)methyl)amino)thianthren-1-yl)-4-morpholino pyridin-2 (1H)-one]: the SER2 (concentration at which the radiation sensitivity-enhancement ratio reaches 2) in assay [1] (NCI-H460, 120 h) was 100 to 500 nM. Besides, on ATM, the IC50 is below 100 nM.
For `COC[C@H](CN1CCOC(C)(C)C1)Nc1ccc2c(c1)Sc1cccc(-c3cc(N4CCOCC4)cc(=O)[nH]3)c1S2` [Example 1-46-9, (S)-6-(7-((1-(2,2-Dimethylmorpholino)-3-methoxypropan-2-yl)amino)thianthren-1-yl)-4-morpholino pyridin-2(1H)-one] the same measures were 100 to 500 nM and below 100 nM.
In the case of `COc1cnc(C(C)Nc2ccc3c(c2)Sc2cccc(-c4cc(N5CCOCC5)cc(=O)[nH]4)c2S3)cn1` (centres unmarked) [Example 1-12-114, 6-(7-((1-(5-Methoxypyrazin-2-yl)ethyl)amino)thianthren-1-yl)-4-morpholino pyridin-2(1H) one], the SER2 (concentration at which the radiation sensitivity-enhancement ratio reaches 2) in assay [1] (NCI-H460, 120 h) lay within 100 to 500 nM. Further, at ATM, the IC50 is below 100 nM.
For the compound `O=c1cc(N2CCOCC2)cc(-c2cccc3c2Oc2ccc(NCc4ccc(Cl)nc4)cc2C3)[nH]1` [Example 2-2-3], the SER2 (concentration at which the radiation sensitivity-enhancement ratio reaches 2) in assay [1] (NCI-H460, 120 h) lay within 100 to 500 nM. Further, the IC50 at ATM fell in the range of 100 to 500 nM.
As to `CN1CCCC(Nc2ccc3c(c2)Sc2cccc(-c4cc(N5CCOCC5)cc(=O)[nH]4)c2S3)C1` (centres unmarked) [Example 1-31-2, 6-(7-((1-Methylpiperidin-3-yl)amino)thianthren-1-yl)-4-morpholinopyridin-2(1H)-one], in assay [1] (NCI-H460, 120 h), the SER2 (concentration at which the radiation sensitivity-enhancement ratio reaches 2) lay in the range of 100 to 500 nM. Also, the IC50 on ATM was below 100 nM.
The like results for `O=c1cc(N2CCOCC2)cc(-c2cccc3c2Sc2ccc(NC4CCCC4N4CCOCC4)cc2S3)[nH]1` (single isomer, unassigned) [Example 1-16-1-2, 4-morpholino-6-(7-((2-morpholinocyclopentyl)amino)thianthren-1-yl)pyridin-2(1H)-one] were, in that order, below 100 nM and below 100 nM.
For `CC(CN1CCOCC1)Nc1ccc2c(c1)Sc1cccc(-c3cc(N4CCOCC4)cc(=O)[nH]3)c1S2` (racemic) [Example 1-13-2-1, 4-Morpholino-6-(7-((1-morpholinopropan-2-yl)amino)thianthren-1-yl)pyridin-2(1H)-one] the same measures were 100 to 500 nM and below 100 nM.
As for `COc1ncc(CNc2ccc3c(c2)Cc2cccc(-c4cc(N5CCOCC5)cc(=O)[nH]4)c2O3)cn1` [Example 2-2-14, 6-(7-(((2-Methoxypyrimidin-5-yl)methyl)amino)-9H-xanthen-4-yl)-4-morpholino pyridin-2(1H)-one], the SER2 (concentration at which the radiation sensitivity-enhancement ratio reaches 2) in assay [1] (NCI-H460, 120 h) fell in the range of 100 to 500 nM. The IC50 on ATM was below 100 nM.

These data come from US9586951B2 (FUJIFILM Corporation, priority 2013, dated 2017).
